Experimental data from paper PMC2700090 (Virology Journal, 2009).
Peptide text beside a SMILES is read from it.

Molecular target: neuraminidase (NA) (Influenza A virus (A/Hong Kong/1073/99(H9N2)), UniProt Q9ICY2)
Assay: biochemical
Conditions: read-out: % inhibition at 1000 μM

C[C@@H](O)[C@H](NC(=O)[C@H](CCCCN)NC(=O)[C@H](CO)NC(=O)[C@H](CCCNC(=N)N)NC(=O)[C@H](Cc1ccccc1)NC(=O)[C@H](CC(=O)O)NC(=O)[C@@H](N)CC(N)=O)C(=O)O [L-P1, NDFRSKT] (H-NDFRSKT-OH)
inhibition at 1000 µM: ~35%
